Measurements published in publication PMC8695447, “Novel Small Molecules Capable of Blocking mtRAS-Signaling Pathway” (Frontiers in Oncology, 2021).

Columns and labels:
Type in all cases: cell-based
[1] = test system: phospho-AKT, -MEK, -ERK in Ba/F3-NRAS-G12D and Ba/F3-NRAS-G12V cells; experiment: Western blot, phospho-AKT, -MEK, -ERK in Ba/F3 cells transformed with mtRAS; conditions: 2 h; for inhibitory capabilities on phosphorylation level of MEK, ERK, and AKT at 1 µM relative to GNF-7: Ba/F3 mtRAS cells; for phospho-AKT, -MEK, -ERK levels at 10 µM: Ba/F3 cells transformed with mtRAS (NRAS-G12D and NRAS-G12V)
Experimental: Approximately 1 × 10^6 cells per well were seeded in a 6-well cell culture plate. After cell adhesion, each compounds were treated for 2 h with indicated concentration and conducted brief washing twice by ice-cold PBS. Cells were lysed by NP40 buffer (50 mM Tris–HCl pH 7.4, 1% NP40, 2 mM EDTA, 150 mM NaCl) in the presence of protease inhibitor cocktail (Roche, #11873580001) and phosphatase inhibitor cocktail (Roche, #04906837001). Each sample was loaded with same amount of total protein and separated by SDS-PAGE gel. After transferred to nitrocellulose membrane, blocking with 5% skim milk (in TBS/T) was followed. The membrane was incubated 4°C for overnight with uniformly diluted primary antibodies at 1:1,000 (v/v) in TBS/T. The following primary antibodies were used: anti-p-AKT (Cell Signaling, #9271), anti-p-ERK1/2 (Cell Signaling, #4370), anti-PARP (Cell Signaling, #9542), anti-GAPDH (Cell Signaling, #5174), anti-p-70S6K1 (Cell Signaling, #9204), anti-p-JNK(Cell Signaling, #9251), anti-p-p38 (Cell Signaling, #9216), and anti-p-MEK1/2 (Santa Cruz, sc-81503). Each membrane was incubated with HRP-conjugated goat anti-Rabbit secondary antibody (Gendepot, SA002-500) or HRP-conjugated goat anti-Mouse secondary antibody (Gendepot, SA001-500) for 1 h (1:10,000, v/v) in TBS/T at room temperature and followed ECL solution treatment. Chemiluminescence signals were detected by ImageQuant™ LAS 4000 (GE Healthcare).
Figure 1 The effects of (A) SIJ1795 and (B) SIJ1772 on MAPK and PI3K/AKT signaling pathways in Ba/F3 cells transformed with mtRAS (NRAS-G12D and NRAS-G12V). Cells were treated with 0.1, 1, and 10 μM of SIJ1795, SIJ1772, and GNF-7 for 2 h. Western blot analysis was conducted to evaluate the phospho-AKT, -MEK, -ERK levels. GAPDH was used as the loading control.

[2] = test system: cancer cells harboring mtRAS; experiment: Flow cytometry apoptosis analysis (annexin V/PI), cancer cells harboring mtRAS; conditions: 1 μM, 24 h
Experimental: For apoptosis analysis, cells (1 × 10^6 cells per sample) were incubated with each compounds for 24 h. Cells were subjected to brief ice-cold PBS washing and subjected to staining with Alexafluor488-conjugated annexin V (Thermo Fisher, A13201), and propidium iodide (PI, Thermo Fisher, P3560). Thereafter, apoptotic cells were classified by FACS Accuri™ C6 Plus (BD Biosciences). Debris and unstained cells and were excluded by gating.
Figure 4 The effects of (A) SIJ1795 and (B) SIJ1772 on apoptosis induction in cancer cells harboring mtRAS. Cells were treated with 0.1 and 1 μM of SIJ1795 SIJ1772, and GNF-7 for 24 h. Western blot analysis was conducted to evaluate the cleaved PARP and level. GAPDH was used as a loading control. (C) Apoptotic cell population (annexin V-positive) was determined by flow cytometry analysis (n = 3). Cells were treated with 1 μM of indicated compounds for 24 h. Statistical significance was determined using a one-way ANOVA analysis (*p < 0.05, **p < 0.01, ***p < 0.001).

[3] = test system: cancer cells with mtRAS including H358, AsPC-1, DU-145, SW480, and MDA-MB-231; experiment: Migration assay (scratch assay); conditions: 0.01 µM
Experimental: For migration assay, scratch assay was conducted. Each cells (2.0 × 10^5 cells/well) were seeded in 24-well plates. After cellular attachment, cells were scratched with a SPLScarTM Scratcher (SPL Life Sciences, #201924) and the detached cells were removed by PBS washing twice. Cells were incubated in complete media with 0.01 μM concentrations of each compounds for indicated time. The images were acquired before and after incubation with compounds (40× magnification), and percent of migration were accessed using ImageJ (n = 3).
Figure 6 The effects of SIJ1795 and SIJ1772 on migration and invasion activities of cancer cells harboring mtRAS. (A) Scratch assay result for cell migration ability determination. Each cell monolayers were scratched and incubated with test compounds at 0.01 μM. After 8 h (MDA-MB-231) or 24 h (DU-145, SW480, HCT-116) or 48 h (AsPC-1) or 72 h (HT-29), cells were stained with crystal violet. Migrated areas were photographed with 40× magnification. Migrated area was determined by ImageJ (n = 3). (B) Boyden chamber assay result for cell invasion ability determination. Indicated compounds of 0.01 μM were treated and incubated for 48 h Invaded cells were stained by crystal violet and photographed. Stained cells were counted by ImageJ (n = 3). Statistical significance was determined using a one-way ANOVA analysis (*p < 0.05, **p < 0.01, ***p < 0.001, ****p < 0.0001).

[4] = test system: cancer cells harboring mtRAS; experiment: Soft agar assay (3D clonogenic assay); conditions: 0.1 μM, 14 days
Experimental: Soft agar assay was conducted for 3D clonogenic assay. On the 0.7% bottom agar, cells were seeded in 6-well plate (5 × 10^3 cells/well) with 0.35% low melting agar (Lonza, #50101) containing the complete media. The cells were treated with indicated compounds for 14 days at 37°C. Colonies were stained by iodonitrotetrazolium chloride (Sigma-Aldrich, I8377) for overnight. The total area of each well was observed without magnification, and the number of colonies of each well were determined using ImageJ software (n = 3).
Figure 8 (A–F) Soft agar assay results for evaluating the effect of SIJ1795 and SIJ1772 on anchorage independent growth abilities on cancer cells harboring mtRAS. Cells were incubated with indicated compounds (0.01 µM or 0.1 µM) for 14 days. After staining with crystal violet, colonies were photographed without magnification. (G–L) Number of colonies (% of control) upon treatment with indicated compounds at 0.1 µM concentration were determined by ImageJ (n = 3, respectively). Statistical significance was calculated by a one-way ANOVA analysis (*p < 0.05, **p < 0.01, ***p < 0.001, ****p < 0.0001).

SMILES | inhibitory capabilities on phosphorylation level of MEK, ERK, and AKT at 1 µM relative to GNF-7 [1] | phospho-AKT, -MEK, -ERK levels at 10 µM [1] | apoptosis against cancer cells harboring mtRAS (annexin V/PI) [2] | reduction in migration capabilities [3] | anchorage independent cell growth [4]
Cc1ccc(NC(=O)c2cccc(C(F)(F)F)c2)cc1N1Cc2cnc(Nc3cnn(C4CCN(S(C)(=O)=O)CC4)c3)nc2N(C)C1=O [SIJ1772, N-(4-Methyl-3-(1-methyl-7-((1-(1-(methylsulfonyl)piperidin-4-yl)-1H-pyrazol-4-yl)amino)-2-oxo-1,4-dihydropyrimido[4,5-d]pyrimidin-3(2H)-yl)phenyl)-3-(trifluoromethyl)benzamide] | slightly increased relative to that of GNF-7 | completely inhibited | induced apoptosis | over 50% | suppressed
CCN1CCN(c2cccc(Nc3ncc4c(n3)N(C)C(=O)N(c3cc(NC(=O)c5cccc(C(F)(F)F)c5)ccc3C)C4)c2)CC1 [SIJ1795, N-(3-(7-((3-(4-Ethylpiperazin-1-yl)phenyl)amino)-1-methyl-2-oxo-1,4-dihydropyrimido[4,5-d]pyrimidin-3(2H)-yl)-4-methylphenyl)-3-(trifluoromethyl)benzamide] | slightly increased relative to that of GNF-7 | completely inhibited | induced apoptosis | over 50% | suppressed
